Data: ChEMBL document CHEMBL1909046, “DrugMatrix in vitro pharmacology data”

Legend:
[1] = biological target: Kappa-type opioid receptor (Homo sapiens, UniProt P41145); assay: DRUGMATRIX: Opiate kappa (OP2, KOP) radioligand binding (ligand: [3H] Diprenorphine); format: cell membranes, HEK293, Membrane; details: hek293; Not Active = under 50% inhibition at 10 µM
[2] = biological target: T1, Type-2 angiotensin II receptor (Homo sapiens, UniProt P50052); format: cell-based; details: cho-k1; further: in other assays of this panel Not Active means under 50% inhibition at 10 µM
T1 sequence (P50052 whole entry): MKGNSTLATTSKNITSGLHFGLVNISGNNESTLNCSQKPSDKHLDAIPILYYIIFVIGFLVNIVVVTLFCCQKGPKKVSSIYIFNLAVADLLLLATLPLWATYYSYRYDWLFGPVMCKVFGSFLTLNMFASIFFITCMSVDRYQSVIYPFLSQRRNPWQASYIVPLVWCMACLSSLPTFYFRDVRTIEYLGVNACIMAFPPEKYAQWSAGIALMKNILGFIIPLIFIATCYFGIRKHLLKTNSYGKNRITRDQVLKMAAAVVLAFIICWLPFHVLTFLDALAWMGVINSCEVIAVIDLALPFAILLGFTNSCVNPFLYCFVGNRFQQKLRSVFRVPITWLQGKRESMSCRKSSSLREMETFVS

[3] = biological target: Protein kinase C alpha type (Homo sapiens, UniProt P17252); format: cell-based; details: sf9;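 further: inhibition of PKCalpha kinase activity measured in an enzyme assay with histone as the phosphorylation substrate; in other assays of this panel Not Active means under 50% inhibition at 10 µM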
[4] = biological target: Sodium-dependent noradrenaline transporter (Homo sapiens, UniProt P23975); assay: DRUGMATRIX: Norepinephrine Transporter radioligand binding (ligand: [125I] RTI-55); format: cell membranes, MDCK, Membrane; details: mdck; Not Active = under 50% inhibition at 10 µM
Sodium-dependent noradrenaline transporter, sequence (P23975 whole entry): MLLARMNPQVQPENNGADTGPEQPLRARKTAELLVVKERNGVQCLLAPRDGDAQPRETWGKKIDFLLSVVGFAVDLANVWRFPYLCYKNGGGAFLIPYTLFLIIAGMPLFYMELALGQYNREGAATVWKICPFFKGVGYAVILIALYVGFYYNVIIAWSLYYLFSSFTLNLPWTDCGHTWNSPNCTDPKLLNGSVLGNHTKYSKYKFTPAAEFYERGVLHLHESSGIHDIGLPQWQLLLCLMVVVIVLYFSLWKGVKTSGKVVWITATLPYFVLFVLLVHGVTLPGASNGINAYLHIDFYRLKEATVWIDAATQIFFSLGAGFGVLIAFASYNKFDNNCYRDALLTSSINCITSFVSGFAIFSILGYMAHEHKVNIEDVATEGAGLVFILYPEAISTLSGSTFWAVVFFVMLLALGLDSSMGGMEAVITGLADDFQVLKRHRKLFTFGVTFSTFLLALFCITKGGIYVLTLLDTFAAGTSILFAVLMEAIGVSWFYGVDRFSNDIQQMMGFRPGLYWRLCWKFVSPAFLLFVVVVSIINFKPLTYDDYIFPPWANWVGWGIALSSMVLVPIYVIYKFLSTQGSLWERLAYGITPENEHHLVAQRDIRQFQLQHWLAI

Carbonic anhydrase 2 = Carbonic anhydrase 2 (Homo sapiens, UniProt P00918); assay: DRUGMATRIX: Carbonic Anhydrase II enzyme inhibition (substrate: 4-Nitrophenyl acetate (4-NPA)); format: tissue-based, Erythrocyte; details: erythrocyte; Not Active = under 50% inhibition at 10 µM
B2 bradykinin receptor = biological target: T2, B2 bradykinin receptor (Homo sapiens, UniProt P30411); format: cell membranes, Membrane; details: chem-1; further: in other assays of this panel Not Active means under 50% inhibition at 10 µM
T2 sequence (P30411 whole entry): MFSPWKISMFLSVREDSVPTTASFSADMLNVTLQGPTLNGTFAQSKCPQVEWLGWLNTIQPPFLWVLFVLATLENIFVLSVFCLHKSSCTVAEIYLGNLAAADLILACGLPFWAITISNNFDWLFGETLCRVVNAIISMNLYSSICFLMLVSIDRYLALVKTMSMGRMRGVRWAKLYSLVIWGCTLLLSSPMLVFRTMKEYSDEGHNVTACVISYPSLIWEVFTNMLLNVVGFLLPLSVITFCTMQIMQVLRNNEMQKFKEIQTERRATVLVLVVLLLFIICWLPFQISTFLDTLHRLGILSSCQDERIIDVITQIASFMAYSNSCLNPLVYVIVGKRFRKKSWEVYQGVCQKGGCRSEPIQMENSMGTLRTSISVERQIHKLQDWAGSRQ

[5] = biological target: T3, Amine oxidase [flavin-containing] A (Homo sapiens, UniProt P21397); assay: DRUGMATRIX: Monoamine Oxidase MAO-A enzyme inhibition (substrate: Kynuramine); set-up: species or system BTI-TN-5B1-4; details: bti-tn-5b1-4; Not Active = under 50% inhibition at 10 µM
T3 sequence (P21397 whole entry): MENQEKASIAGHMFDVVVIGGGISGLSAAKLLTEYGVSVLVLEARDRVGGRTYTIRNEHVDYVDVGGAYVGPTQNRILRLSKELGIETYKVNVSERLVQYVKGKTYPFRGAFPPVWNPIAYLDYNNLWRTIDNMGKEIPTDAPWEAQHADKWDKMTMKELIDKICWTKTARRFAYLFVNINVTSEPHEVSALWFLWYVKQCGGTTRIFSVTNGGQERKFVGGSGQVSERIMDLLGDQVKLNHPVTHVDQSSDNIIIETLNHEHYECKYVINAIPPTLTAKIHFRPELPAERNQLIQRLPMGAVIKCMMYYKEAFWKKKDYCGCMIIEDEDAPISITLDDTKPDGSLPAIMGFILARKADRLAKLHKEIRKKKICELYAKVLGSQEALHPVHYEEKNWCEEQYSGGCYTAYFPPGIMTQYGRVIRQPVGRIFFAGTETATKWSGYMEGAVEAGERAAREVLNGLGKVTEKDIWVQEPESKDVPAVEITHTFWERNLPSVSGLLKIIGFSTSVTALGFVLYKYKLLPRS

[6] = biological target: C-C chemokine receptor type 5 (Homo sapiens, UniProt P51681); format: cell membranes, Membrane; details: hek293; further: in other assays of this panel Not Active means under 50% inhibition at 10 µM
C-C chemokine receptor type 5, sequence (P51681 whole entry): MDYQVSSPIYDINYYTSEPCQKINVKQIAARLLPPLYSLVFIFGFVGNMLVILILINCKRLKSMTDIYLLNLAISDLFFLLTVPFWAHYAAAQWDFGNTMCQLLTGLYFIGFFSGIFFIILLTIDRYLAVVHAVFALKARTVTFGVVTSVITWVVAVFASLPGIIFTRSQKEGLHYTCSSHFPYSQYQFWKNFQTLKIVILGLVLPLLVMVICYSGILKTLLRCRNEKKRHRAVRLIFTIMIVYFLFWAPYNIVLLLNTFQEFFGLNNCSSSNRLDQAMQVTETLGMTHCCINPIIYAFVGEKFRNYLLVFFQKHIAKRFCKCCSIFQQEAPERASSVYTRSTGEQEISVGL

[7] = DRUGMATRIX: Phosphodiesterase PDE3 enzyme inhibition (substrate: [3H]cAMP + cAMP); format: tissue-based, Homo sapiens; details: platelet; Not Active = under 50% inhibition at 10 µM
Melanocortin receptor 5 = Melanocortin receptor 5 (Homo sapiens, UniProt P33032); format: cell membranes, HEK293, Membrane; details: hek293; further: in other assays of this panel Not Active means under 50% inhibition at 10 µM
Melanocortin receptor 5, sequence (P33032 whole entry): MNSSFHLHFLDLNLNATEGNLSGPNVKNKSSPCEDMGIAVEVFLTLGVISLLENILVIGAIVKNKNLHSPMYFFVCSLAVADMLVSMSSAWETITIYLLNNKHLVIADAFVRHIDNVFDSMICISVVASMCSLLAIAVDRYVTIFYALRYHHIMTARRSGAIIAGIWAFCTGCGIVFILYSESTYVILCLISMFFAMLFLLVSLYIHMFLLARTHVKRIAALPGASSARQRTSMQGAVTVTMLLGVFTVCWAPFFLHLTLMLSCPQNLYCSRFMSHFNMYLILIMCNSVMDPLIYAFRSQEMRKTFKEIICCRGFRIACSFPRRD

[8] = biological target: Prostaglandin G/H synthase 1 (Homo sapiens, UniProt P23219); assay: biochemical; format: tissue-based, Platelet; details: platelet
Prostaglandin G/H synthase 1, sequence (P23219 whole entry): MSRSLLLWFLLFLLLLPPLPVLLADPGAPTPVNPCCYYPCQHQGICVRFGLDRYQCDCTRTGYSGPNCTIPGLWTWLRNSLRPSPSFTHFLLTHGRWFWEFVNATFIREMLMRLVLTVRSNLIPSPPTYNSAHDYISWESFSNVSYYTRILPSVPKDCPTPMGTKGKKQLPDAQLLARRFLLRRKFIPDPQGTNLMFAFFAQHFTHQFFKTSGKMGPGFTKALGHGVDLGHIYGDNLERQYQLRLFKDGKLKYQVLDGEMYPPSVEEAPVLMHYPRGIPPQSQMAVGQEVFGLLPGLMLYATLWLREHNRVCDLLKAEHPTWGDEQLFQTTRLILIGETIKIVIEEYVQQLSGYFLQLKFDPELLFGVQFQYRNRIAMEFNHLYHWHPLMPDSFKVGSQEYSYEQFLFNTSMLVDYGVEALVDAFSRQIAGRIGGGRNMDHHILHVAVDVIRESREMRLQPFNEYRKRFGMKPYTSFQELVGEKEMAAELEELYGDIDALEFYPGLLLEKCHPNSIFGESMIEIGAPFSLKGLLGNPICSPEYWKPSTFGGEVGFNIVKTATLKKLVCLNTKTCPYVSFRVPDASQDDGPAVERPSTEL

[9] = biological target: Delta-type opioid receptor (Homo sapiens, UniProt P41143); format: cell membranes, HEK293, Membrane; details: hek293; further: in other assays of this panel Not Active means under 50% inhibition at 10 µM
Delta-type opioid receptor, sequence (P41143 whole entry): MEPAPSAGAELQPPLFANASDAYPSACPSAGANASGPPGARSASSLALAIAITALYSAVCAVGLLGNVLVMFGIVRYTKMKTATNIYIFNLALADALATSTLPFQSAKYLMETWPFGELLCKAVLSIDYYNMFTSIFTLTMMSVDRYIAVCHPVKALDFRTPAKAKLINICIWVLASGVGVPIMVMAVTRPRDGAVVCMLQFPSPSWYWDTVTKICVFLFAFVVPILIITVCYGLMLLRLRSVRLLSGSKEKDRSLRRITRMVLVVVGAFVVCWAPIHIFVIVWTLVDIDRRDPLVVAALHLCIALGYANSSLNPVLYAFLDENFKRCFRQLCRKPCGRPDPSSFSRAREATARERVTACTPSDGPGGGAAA

[10] = biological target: Epidermal growth factor receptor (Homo sapiens, UniProt P00533); assay: DRUGMATRIX: Protein Tyrosine Kinase, EGF Receptor enzyme inhibition (substrate: Poly(Glu:Tyr)); format: cell-based, Insect cells; details: insect cells; Not Active = under 50% inhibition at 10 µM
Epidermal growth factor receptor, sequence (P00533 whole entry): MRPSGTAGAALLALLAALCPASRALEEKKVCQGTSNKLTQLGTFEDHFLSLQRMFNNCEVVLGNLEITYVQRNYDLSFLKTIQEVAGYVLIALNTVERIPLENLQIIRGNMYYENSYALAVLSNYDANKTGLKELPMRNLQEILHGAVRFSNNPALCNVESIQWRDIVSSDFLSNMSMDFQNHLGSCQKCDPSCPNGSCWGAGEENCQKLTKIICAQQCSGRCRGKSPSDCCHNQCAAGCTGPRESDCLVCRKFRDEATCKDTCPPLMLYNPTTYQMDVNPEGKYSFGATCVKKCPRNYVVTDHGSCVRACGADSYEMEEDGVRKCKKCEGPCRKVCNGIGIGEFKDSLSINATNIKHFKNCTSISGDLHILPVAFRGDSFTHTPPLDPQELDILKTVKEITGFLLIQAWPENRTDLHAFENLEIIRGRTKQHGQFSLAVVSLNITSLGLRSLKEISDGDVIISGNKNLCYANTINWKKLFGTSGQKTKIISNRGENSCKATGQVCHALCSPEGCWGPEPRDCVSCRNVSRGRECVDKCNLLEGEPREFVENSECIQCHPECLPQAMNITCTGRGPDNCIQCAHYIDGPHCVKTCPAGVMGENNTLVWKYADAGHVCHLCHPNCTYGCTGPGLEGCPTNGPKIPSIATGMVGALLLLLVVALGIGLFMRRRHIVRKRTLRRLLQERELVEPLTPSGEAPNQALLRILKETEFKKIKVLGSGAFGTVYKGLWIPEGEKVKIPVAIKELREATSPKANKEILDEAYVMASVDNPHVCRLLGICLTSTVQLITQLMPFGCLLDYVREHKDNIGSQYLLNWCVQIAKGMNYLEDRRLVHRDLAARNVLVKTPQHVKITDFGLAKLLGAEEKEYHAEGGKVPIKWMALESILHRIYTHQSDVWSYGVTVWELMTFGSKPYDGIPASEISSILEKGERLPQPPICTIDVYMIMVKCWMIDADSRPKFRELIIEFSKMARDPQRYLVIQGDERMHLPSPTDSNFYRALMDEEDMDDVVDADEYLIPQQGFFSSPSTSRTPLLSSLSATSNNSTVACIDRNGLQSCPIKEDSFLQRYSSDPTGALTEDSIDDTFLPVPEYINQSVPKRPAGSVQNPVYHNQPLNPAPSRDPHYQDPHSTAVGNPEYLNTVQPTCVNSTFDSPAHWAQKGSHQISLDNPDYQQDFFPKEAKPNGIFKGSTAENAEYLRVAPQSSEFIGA

Thromboxane-A synthase = biological target: T4, Thromboxane-A synthase (Homo sapiens, UniProt P24557); assay: biochemical; format: tissue-based, Platelet; details: platelet
T4 sequence (P24557 whole entry): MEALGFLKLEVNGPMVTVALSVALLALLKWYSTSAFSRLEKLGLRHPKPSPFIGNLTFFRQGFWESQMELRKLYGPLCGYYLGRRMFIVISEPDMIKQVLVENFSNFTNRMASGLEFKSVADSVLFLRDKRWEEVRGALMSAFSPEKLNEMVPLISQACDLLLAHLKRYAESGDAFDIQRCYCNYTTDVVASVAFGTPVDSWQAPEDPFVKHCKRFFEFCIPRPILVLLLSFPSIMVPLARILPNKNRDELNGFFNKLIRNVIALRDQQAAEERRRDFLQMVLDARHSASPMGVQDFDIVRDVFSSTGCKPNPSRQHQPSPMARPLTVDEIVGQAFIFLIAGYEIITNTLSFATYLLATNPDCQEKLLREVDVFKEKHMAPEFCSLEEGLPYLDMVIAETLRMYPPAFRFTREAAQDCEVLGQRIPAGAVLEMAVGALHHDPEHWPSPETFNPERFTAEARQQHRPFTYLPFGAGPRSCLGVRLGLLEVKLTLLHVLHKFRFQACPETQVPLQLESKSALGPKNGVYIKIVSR

Cannabinoid receptor 1 = Cannabinoid receptor 1 (Homo sapiens, UniProt P21554); format: cell membranes, Membrane; details: chem-1; further: in other assays of this panel Not Active means under 50% inhibition at 10 µM
Cannabinoid receptor 1, sequence (P21554 whole entry): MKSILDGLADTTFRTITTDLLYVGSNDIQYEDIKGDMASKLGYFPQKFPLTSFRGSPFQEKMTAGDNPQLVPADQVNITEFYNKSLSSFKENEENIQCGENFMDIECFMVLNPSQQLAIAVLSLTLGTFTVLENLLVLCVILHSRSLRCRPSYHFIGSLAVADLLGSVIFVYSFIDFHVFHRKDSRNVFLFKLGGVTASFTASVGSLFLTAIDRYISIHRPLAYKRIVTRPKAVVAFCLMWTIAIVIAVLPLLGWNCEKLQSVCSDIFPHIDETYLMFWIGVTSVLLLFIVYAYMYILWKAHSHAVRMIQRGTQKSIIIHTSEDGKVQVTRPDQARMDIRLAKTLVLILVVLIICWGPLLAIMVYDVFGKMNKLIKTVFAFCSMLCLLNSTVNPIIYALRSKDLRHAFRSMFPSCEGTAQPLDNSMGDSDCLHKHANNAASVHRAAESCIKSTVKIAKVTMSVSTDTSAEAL

Kappa-type opioid receptor, sequence (P41145 whole entry): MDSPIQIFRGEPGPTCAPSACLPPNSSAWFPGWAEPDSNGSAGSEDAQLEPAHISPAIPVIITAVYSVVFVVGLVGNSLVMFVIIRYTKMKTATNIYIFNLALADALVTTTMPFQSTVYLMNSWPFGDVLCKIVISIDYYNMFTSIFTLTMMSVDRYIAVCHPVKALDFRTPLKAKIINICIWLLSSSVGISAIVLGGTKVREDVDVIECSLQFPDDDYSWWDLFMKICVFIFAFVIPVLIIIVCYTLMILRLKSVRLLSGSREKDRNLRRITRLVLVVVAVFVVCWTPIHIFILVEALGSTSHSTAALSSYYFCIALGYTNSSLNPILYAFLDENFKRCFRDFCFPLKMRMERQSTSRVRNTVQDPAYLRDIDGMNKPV

O=P1(NCCCl)OCCCN1CCCl (stereo unspecified) [IFOSFAMIDE]
Not Active: IC50 [1] | IC50 [2] | IC50 [3] | IC50 [4] | IC50 (Carbonic anhydrase 2) | IC50 (B2 bradykinin receptor) | IC50 [5] | IC50 [6] | IC50 [7] | Ki [7] | IC50 (Melanocortin receptor 5) | IC50 [8] | IC50 [9] | IC50 [10] | IC50 (Thromboxane-A synthase) | IC50 (Cannabinoid receptor 1)

O=C(O)c1cn(C2CC2)c2cc(N3CCNCC3)c(F)cc2c1=O [CIPROFLOXACIN]
Not Active: IC50 [1] | IC50 [2] | IC50 [3] | IC50 [4] | IC50 (Carbonic anhydrase 2) | IC50 (B2 bradykinin receptor) | IC50 [5] | IC50 [6] | IC50 [7] | Ki [7] | IC50 (Melanocortin receptor 5) | IC50 [8] | IC50 [9] | IC50 [10] | IC50 (Thromboxane-A synthase) | IC50 (Cannabinoid receptor 1)

O=C1OCCN1/N=C/c1ccc([N+](=O)[O-])o1 [FURAZOLIDONE]
Not Active: IC50 [1] | IC50 [2] | IC50 [3] | IC50 [4] | IC50 (Carbonic anhydrase 2) | IC50 (B2 bradykinin receptor) | IC50 [5] | IC50 [6] | IC50 [7] | Ki [7] | IC50 (Melanocortin receptor 5) | IC50 [8] | IC50 [9] | IC50 [10] | IC50 (Thromboxane-A synthase) | IC50 (Cannabinoid receptor 1)

Oc1cccc2cccnc12 [OXYQUINOLINE]
Not Active: IC50 [1] | IC50 [2] | IC50 [3] | IC50 [4] | IC50 (Carbonic anhydrase 2) | IC50 (B2 bradykinin receptor) | IC50 [5] | IC50 [6] | IC50 [7] | Ki [7] | IC50 (Melanocortin receptor 5) | IC50 [8] | IC50 [9] | IC50 [10] | IC50 (Thromboxane-A synthase) | IC50 (Cannabinoid receptor 1)

CN1CCC[C@H]1c1cccnc1 [NICOTINE]
Not Active: IC50 [1] | IC50 [2] | IC50 [3] | IC50 [4] | IC50 (Carbonic anhydrase 2) | IC50 (B2 bradykinin receptor) | IC50 [5] | IC50 [6] | IC50 [7] | Ki [7] | IC50 (Melanocortin receptor 5) | IC50 [8] | IC50 [9] | IC50 [10] | IC50 (Thromboxane-A synthase) | IC50 (Cannabinoid receptor 1)

CC(C)NC[C@H](O)COc1cccc2[nH]ccc12
Not Active: IC50 [1] | IC50 [2] | IC50 [3] | IC50 [4] | IC50 (Carbonic anhydrase 2) | IC50 (B2 bradykinin receptor) | IC50 [5] | IC50 [6] | IC50 [7] | Ki [7] | IC50 (Melanocortin receptor 5) | IC50 [8] | IC50 [9] | IC50 [10] | IC50 (Thromboxane-A synthase) | IC50 (Cannabinoid receptor 1)
